Results published in article PMC8614864, “Bioengineered System for High Throughput Screening of Kv1 Ion Channel Blockers” (Bioengineering, 2021).
Like-named read-outs stand apart in the source and are kept apart here. Ends that are not written are not given here. linker L1 (45 aa) = not defined here

Tests used:
[1] = tested on: hybrid Kv1-KcsA channels expressed in the E. coli membrane; conditions: laser scanning confocal microscopy, competitive binding; cited from earlier work
Source text: In order to estimate the possibilities and limitations of the assay, the molecular details of blocker interaction with a natural and chimeric channel should be considered. The common feature of the peptide blocker binding is an occlusion of the pore with the side chain of a lysine residue, which is accompanied by the formation of multiple bonds between the peptide and amino acid residues surrounding the pore. Since the pore occlusion is the essential feature of any Kv1-channel blocker interacting with a channel at the extracellular side, the binding sites of peptide blockers and sm ...

[2] = target: Kv1.3; conditions: cited from earlier work
Protocol: Table 1 Kd values obtained by direct titration of GFP-toxins or by their displacement with unlabeled ones and their comparison to our previous and literature data. | column: Kd or IC50, nM / Literature Data || Our approach was evaluated using several Kv1.3 ligands with known dissociation constants. These are unlabeled recombinant channel blockers from scorpion venom, AgTx2, ChTx, KTx and labeled GFP-tagged chimeras AgTx-GFP and ChTx-GFP. […] This is close to the values reported earlier: 0.21 nM for AgTx2-GFP in our system and 1.8–2.6 nM for ChTx (Table 1).

[3] = target: KcsA-Kv1.3; conditions: ref Our Previous Data (Table 1); cited from earlier work
Protocol: Table 1 Kd values obtained by direct titration of GFP-toxins or by their displacement with unlabeled ones and their comparison to our previous and literature data. | column: Dissociation Constants, nM * / Our Previous Data || Our approach was evaluated using several Kv1.3 ligands with known dissociation constants. These are unlabeled recombinant channel blockers from scorpion venom, AgTx2, ChTx, KTx and labeled GFP-tagged chimeras AgTx-GFP and ChTx-GFP. […] This is close to the values reported earlier: 0.21 nM for AgTx2-GFP in our system and 1.8–2.6 nM for ChTx (Table 1).

[4] = tested on: KcsA-Kv1.3-RFP; assay: Displacement of GFP-labeled toxins by unlabeled toxins on spheroplasts, flow cytometry; type: binding; conditions: for Kd: displacement of AgTx2-GFP, Cheng-Prusoff, Mean ± SD, read-out: Apparent dissociation constant (Kap)
Protocol: (§1) Spheroplasts were prepared according to the previously developed protocol. Briefly, E. coli cells (BL21 (DE3) strain) transformed with pET28a-KcsA-Kv1.3-RFP plasmid were cultivated in a minimal M9 medium at 37 °C up to OD560 = 0.8, then induced with 50 μM IPTG and further grown for 18 h. Cells were harvested by centrifugation (5000× g, 10 min, 4 °C), incubated in buffer A (10 mM Tris–HCl, pH 8.0, 0.5 m sucrose) containing lysozyme (20 μg/mL) for 7 min on ice, then diluted twofold with buffer B (10 mM Tris–HCl, pH 8.0, 0.3 mM ethylenediamine tetraacetic acid) and further incubated for 20 min. Then MgCl2 was added to a final concentration of 10 mM to stabilize the spheroplasts. Obtained in this way, the spheroplast suspension has OD560 of about 0.5 and was diluted for binding assay as described further.
(§2) For ligand binding analysis, a series of ligand dilutions were prepared in 12 × 75 mm flow cytometry test tubes. For this, 45 µL of toxin solution with a ten times higher concentration than the maximal concentration on titration curve was prepared. This solution was serially diluted with 3.16-fold step (13.9 µL of toxin solution + 30 µL buffer). These toxin dilutions were supplemented with 270 µL of spheroplast suspension at 10^6 cells/mL to give 300 µL final reaction mixtures. For analysis of displacement of GFP-labeled toxins by unlabeled toxins, spheroplast suspensions were supplemented with 1.1× concentration of GFP-labeled toxin before mixing with unlabeled toxin dilutions. All dilutions were made in a binding buffer: 0.25 M sucrose, […], 2 mM KCl, 50 mM NaCl, 10 mM MgCl2, 0.2% BSA and 50 mM Tris–HCl, pH 7.5.
(§3) To ensure equilibrium conditions, we analyzed samples after 90–120 min of incubation without removing toxins. Data acquisition was carried out with FC-500 flow cytometer (Beckman Coulter, Brea, CA, USA) using 488 nm excitation for both GFP and RFP and fluorescence detection with FL1 (505–545 nm) and FL3 (610–630 nm) channels for GFP and RFP, respectively. To minimize background fluorescence, samples were run at low speed that gave approx. 100–500 events/s. Events were triggered by side scatting (SSC) so that RFP-labeled cells constituted approx. 30% of events (Figure 2). Remaining events were also present in the samples of filtered binding buffer without cells, so were likely to be related to system noise (either electronic or optical) but not to the dim spheroplasts.
(§4) Automated data analysis was performed by a dedicated script after pre-processing with commercial software. The script was available in user-friendly Jupyter notebook format where data were processed stepwise, and user input-output was realized through an internet browser. This script is designed to process multiple datasets at once and can be easily adjusted for someone’s actual needs.
Initial preprocessing was done with used FlowJo v10 software (Treestar Inc., Wilmington, DE, USA). This was used for gating on cells by forward and side scatter, followed by gating of RFP-positive events (Figure 1) and exporting of gated data in FCS format. This step was preferable since it allowed one to convert data into a conventional FCS format (our flow cytometer import data in LMD file format) and to filter out off-target events such as system noise, cell debris, clumped and untransfected cells (without Kv1.3-RFP in our case). We also created a script for this preprocessing but found it more complicated and less robust than commercial software. […]

[5] = tested on: Kv1 channels; conditions: ref 17; cited from earlier work
Source text: Consequently, our flow cytometry approach can be used to screen unlabeled small organic blockers for their binding with the external lining of the pore. If necessary, FP-peptide blockers can be substituted in the presented assay by small fluorescently labeled ligands, and their affinities can be estimated by direct titration, using the approach ...

[6] = tested on: KcsA-Kv1.3-RFP; assay: Direct titration of GFP-labeled toxins on spheroplasts by flow cytometry; type: binding
Protocol: as §1, §2, §3, §4
Initial preprocessing was done with used FlowJo v10 software (Treestar Inc., Wilmington, DE, USA). This was used for gating on cells by forward and side scatter, followed by gating of RFP-positive events (Figure 1) and exporting of gated data in FCS format. This step was preferable since it allowed one to convert data into a conventional FCS format (our flow cytometer import data in LMD file format) and to filter out off-target events such as system noise, cell debris, clumped and untransfected cells (without Kv1.3-RFP in our case). We also created a script for this preprocessing but found it more complicated and less robust than commercial software.
Filtered data were processed stepwise by a dedicated script, written in the Python programming language and available as a Jupyter notebook for running either on a local machine or in a kaggle data cloud (https://www.kaggle.com/georgesharonov/fcsgroupfit, accessed and executed on 14 November 2021). Data processing workflow was designed for high throughput analysis by processing all similar data in a single script execution. The processing steps were detailed within the notebook. […]

[7] = target: T1, KcsA-Kv1.3 hybrid potassium channel tagged with a red fluorescent protein (TagRFP) (Homotetramer. Turret swap limits are not printed: taken from the known KcsA-Kv1.3 chimera design (ref. 8), KcsA 52-64 replaced by the gap-free aligned Kv1.3 segment (the same stretch is expected in mo)); assay: flow cytometry on cells; same direct titration data; slope of GFP against RFP by linear fit of all RFP-positive events, one-site fit; conditions: one partner purified
T1 chain: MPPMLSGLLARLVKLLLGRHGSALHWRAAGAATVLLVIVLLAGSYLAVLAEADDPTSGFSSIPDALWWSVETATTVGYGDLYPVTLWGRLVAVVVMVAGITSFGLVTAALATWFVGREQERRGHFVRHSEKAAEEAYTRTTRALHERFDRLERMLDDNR

[8] = target: T1, KcsA-Kv1.3 hybrid potassium channel …; assay: flow cytometry on cells; same direct titration data; conventional analysis: mean or median of the RFP-positive minus the RFP-negative population; no saturation up to 100 nM, approach called inconsistent by the authors; conditions: one partner purified
[9] = target: T1, KcsA-Kv1.3 hybrid potassium channel …; assay: flow cytometry on cells; conditions: one partner purified

CC[N+](CC)(CC)CC [tetraethylammonium]
competitive ligand for Kv1-KcsA hybrid channels [1]: competitive ligand

CC[C@H](C)[C@@H]1NC(=O)[C@@H]2CSSC[C@@H]3NC(=O)[C@H](CCCCN)NC(=O)[C@H](CCCNC(=N)N)NC(=O)[C@H](CC(N)=O)NC(=O)[C@H](CCSC)NC(=O)[C@H](CSSC[C@H](NC(=O)[C@H](CO)NC(=O)[C@@H](NC(=O)[C@H](CC(N)=O)NC(=O)[C@@H](NC(=O)[C@@H]4CCCN4C(=O)[C@@H](NC(=O)CN)C(C)C)[C@@H](C)CC)C(C)C)C(=O)N[C@@H]([C@@H](C)O)C(=O)NCC(=O)N[C@@H](CO)C(=O)N4CCC[C@H]4C(=O)N[C@@H](CCC(N)=O)C(=O)N2)NC(=O)[C@H](CCCCN)NC(=O)CNC(=O)[C@H](Cc2ccccc2)NC(=O)[C@H](CCCNC(=N)N)NC(=O)[C@H](CCSC)NC(=O)CNC(=O)[C@H](C)NC(=O)[C@H](CC(=O)O)NC(=O)[C@H](CCCCN)NC(=O)[C@H](CSSC[C@@H](C(=O)N[C@H](C(=O)N2CCC[C@H]2C(=O)N[C@@H](CCCCN)C(=O)O)[C@@H](C)O)NC(=O)[C@H](Cc2c[nH]cn2)NC3=O)NC(=O)[C@@H]2CCCN2C(=O)[C@H](CCCCN)NC1=O [AgTx2, agitoxin 2]
Kd or IC50 (literature) ([2]; ref 8): 6.4 nM
Kd or IC50 (literature) ([2]; ref 18): 0.004 nM
Kd or IC50 (literature) ([2]; ref 19): 0.2 nM
Kd [3]: 0.21 nM
inhibition of binding of labeled ligands by excess unlabeled ligand ([4]; 100 nM unlabeled AgTx2): completely inhibited
IC50 ([4]; displacement of 1 nM AgTx2-GFP, Figure 4B curve, read-out: IC50 (displacement of 50% of the labeled ligand)): 0.7 nM
Kd ([4]; n = 2): 0.1 ± 0.02 nM
fold by which binding constant is lower than that of the labeled variant ([4]; unlabeled toxin vs its GFP-labeled variant): 2–4 times

Nc1ccncc1 [4-aminopiridine]
inhibition of Kv1 channels [5]: inhibit Kv1 channels from the inside of the cell

CC(C)/N=c1\cc2n(-c3ccc(Cl)cc3)c3ccccc3nc-2cc1Nc1ccc(Cl)cc1 [clofazimine]
inhibition of Kv1 channels [5]: inhibit Kv1 channels from the inside of the cell

CC[C@H](C)[C@H](NC(=O)[C@H](CCC(=O)O)NC(=O)[C@@H](NC(=O)CN)C(C)C)C(=O)N[C@@H](CC(N)=O)C(=O)N[C@H](C(=O)N[C@@H](CCCCN)C(=O)N[C@H]1CSSC[C@@H]2NC(=O)[C@H](CCCCN)NC(=O)CNC(=O)[C@H](Cc3ccccc3)NC(=O)[C@H](CCCNC(=N)N)NC(=O)[C@H](CCSC)NC(=O)CNC(=O)[C@H](C)NC(=O)[C@H](CC(=O)O)NC(=O)[C@H](CCCCN)NC(=O)[C@@H]3CSSC[C@@H](C(=O)N[C@H](C(=O)N4CCC[C@H]4C(=O)N[C@@H](CCCCN)C(=O)O)[C@@H](C)O)NC(=O)[C@H](Cc4c[nH]cn4)NC(=O)[C@H](CSSC[C@H](NC(=O)[C@H](CCC(N)=O)NC(=O)[C@@H]4CCCN4C(=O)[C@H](CO)NC(=O)CNC(=O)[C@H](CO)NC1=O)C(=O)N[C@@H](CC(C)C)C(=O)N[C@@H](CCCCN)C(=O)N1CCC[C@H]1C(=O)N3)NC(=O)[C@H](CCCCN)NC(=O)[C@H](CCCNC(=N)N)NC(=O)[C@H](CC(N)=O)NC(=O)[C@H](CCSC)NC2=O)C(C)C [KTx, kaliotoxin 1]
Kd or IC50 (literature) ([2]; ref 21): 0.65 nM
Kd or IC50 (literature) ([2]; ref 22): 0.02 nM
Kd or IC50 (literature) ([2]; ref 23): 0.1 to 2 nM
Kd [3]: 0.78 nM
Kd ([4]; n = 3): 0.04 ± 0.02 nM

AgTx2-GFP: AgTx2 tagged N-terminally with eGFP, moieties separated by a 45-aa linker L1; fluorescent probe ({eGFP-linker L1 (45 aa)}-GVPINVSCTGSPQCIKPCKDAGMRFGKCMNRKCHCTPK; ends and bridges not checked)
Kd [3]: 0.21 nM
Slope, nonspecific binding ([6]; 1 nM labeled toxin + 100 nM AgTx, fitting of all events): 0.49
Slope, nonspecific binding ([6]; 1 nM labeled toxin + 100 nM AgTx, fitting of reduced data): 0.23
Slope (proportional to occupied receptor fraction) ([6]; 1 nM labeled toxin, fitting of all events): 0.88
Slope (proportional to occupied receptor fraction) ([6]; 1 nM labeled toxin, fitting of reduced data): 0.82
Slope, nonspecific binding ([6]; 10 nM labeled toxin + 100 nM AgTx, fitting of all events): 0.54
Slope (proportional to occupied receptor fraction) ([6]; 10 nM labeled toxin, fitting of all events): 0.95
Slope (proportional to occupied receptor fraction) ([6]; 10 nM labeled toxin, fitting of reduced data): 0.9

B1: charybdotoxin tagged N-terminally with eGFP (ligand)
chain: QFTNVSCTTSKECWSVCQRLHNTSRGKCMNKKCRCYS
notes: also called ChTx-GFP; GFP-L1-ChTx; source: E. coli Rosetta-gami (DE3) pLysS, pET23d-GFP-L1-ChTx, purified (Ni-NTA, PD-10 desalting); not shown: eGFP (with the linker L1), N-terminal, kept
Kd [7]: 0.86 nM
Kd by the conventional mean/median analysis, which the authors reject [8]: 32 nM

B2: agitoxin 2 tagged N-terminally with eGFP (ligand)
chain: GVPINVSCTGSPQCIKPCKDAGMRFGKCMNRKCHCTPK
notes: The analogous ChTx-GFP was purified on Ni-NTA, so a His tag is likely here too; also called AgTx2-GFP; AgTx-GFP; source: design and production described earlier [14]; (plasmid pET23d-GFP-L1-AgTx2); not shown: eGFP (with the 45-aa linker L1), N-terminal, kept
Kd by the conventional mean/median analysis, which the authors reject [8]: 6 nM
Kd [9]: 0.2 nM

B3: kaliotoxin 1 (peptide)
chain: GVEINVKCSGSPQCLKPCKDAGMRFGKCMNRKCHCTPK
notes: also called KTx; source: recombinant, produced as described earlier [12] from plasmid pET23d-MalE-L1-KTx
Kd [9]: 0.04 nM

B4: agitoxin 2 (peptide)
chain: GVPINVSCTGSPQCIKPCKDAGMRFGKCMNRKCHCTPK
notes: also called AgTx2; source: recombinant, produced as described earlier [12] from plasmid pET23d-MalE-L1-AgTx2
Kd [9]: 0.1 nM
